Counter-ions that a name gives are not always drawn.
How the values were obtained:
Format in all cases: cell-based, human
[1] = tested on: normal esophageal epithelium cell line EACN42; test: FDA library drug sensitivity testing (CellTiter-Glo, 72 h), normal control cells; parameters: key to DSS: modified drug sensitivity score (DSSmod) from dose-response curve fit; conditions: 72 h, EACN42 normal esophageal cells; for EC50: cell viability (ATP), max test concentration 10μM; for DSS: drug sensitivity score
Description: The normal esophageal epithelium cell line EACN42 was established in the Capobianco laboratory. The cell lines was derived from human normal epithelium and immortalized using HPV E6-E7.
(§1) Drug sensitivity testing (DST) was performed as described previously. […] Individual drugs were dissolved in 100% DMSO and tested in duplicates starting at a maximal test concentration of 10μM then over a 20,000-fold concentration range to generate dose response curves. Wells with assay buffer containing DMSO served as negative controls. 1000 exponentially growing cells were seeded per well in 384-well micro-titer plates and incubated in the presence of compounds in a humidified environment at 37°C and 5% CO2. After 72 hours of treatment, cell viability was assessed by measuring ATP levels via bioluminescence (CellTiter-Glo, Promega) according to manufactures recommendations. Interpretation of curve parameters was performed according to the modified drug sensitivity scoring (DSSmod) function developed by Swords et al. […] Given in this way, the sDSSmod incorporated information on each drug’s potency, efficacy, effect range and therapeutic index, making it possible to prioritize compounds over multiple parameters using a single numerical metric. […] All calculations and scoring routines are implemented in MatLab and additional curve fitting and statistical analyses are performed in GraphPad prism.

[2] = tested on: EAC42 cells; test: FDA library drug sensitivity testing (CellTiter-Glo, 72 h); conditions: EAC42; sDSSmod = DSSmod (patient cells) - DSSmod (normal cells)
From the text: (§2) OE33, OE19 and SKGT2 human esophageal adenocarcinoma cell lines were obtained from the European Collection of Cell Culture ([…]). Flo1, EAC42 and EAC47 cells were established in the Capobianco Laboratory. EAC42 and EAC47 human esophageal adenocarcinoma cell lines are derived from patients undergoing surgery at the Miller School of Medicine, University of Miami. The Capobianco laboratory obtained written informed consent from all patients and approval from the Institutional Research Ethics Committee.
as §1

[3] = tested on: EAC47 cells; test: as above; conditions: EAC47; sDSSmod = DSSmod (patient cells) - DSSmod (normal cells)
From the text: as §2, §1

[4] = tested on: OE19 cells; test: as above; conditions: sDSSmod = DSSmod (patient cells) - DSSmod (normal cells)
From the text: as §2, §1

[5] = tested on: OE33 cells; test: as above; conditions: OE33; sDSSmod = DSSmod (patient cells) - DSSmod (normal cells)
From the text: as §2, §1

[6] = tested on: SK-GT2 cells; test: as above; conditions: SK-GT2; sDSSmod = DSSmod (patient cells) - DSSmod (normal cells)
From the text: as §2, §1

| Molecule | EC50 ([1]; Homo sapiens) [nM] | DSS [1] | sDSSmod [5] | further results |
| --- | --- | --- | --- | --- |
| CN(Cc1cnc2nc(N)nc(N)c2n1)c1ccc(C(=O)N[C@@H](CCC(=O)O)C(=O)O)cc1 [Abitrexate, Methotrexate] | 40 | 21.14 | 16.69 | sDSSmod [2]: 31.2825; sDSSmod [3]: 35.78; sDSSmod [4]: -21.1435 |
| O=c1[nH]cc(F)c(=O)[nH]1 [Adrucil] | 920 | 4.47 | 10.56 | – |
| Nc1ncn([C@@H]2O[C@H](CO)[C@@H](O)[C@H]2O)c(=O)n1 [Azacitidine] | – | 0 | 23.96 | – |
| Nc1nc(O)c2[nH]nnc2n1 [Azaguanine-8] | – | 2.04 | 8.322 | sDSSmod [2]: 6.077 |
| Cn1cnc([N+](=O)[O-])c1Sc1ncnc2nc[nH]c12 [Azathioprine] | – | 0.02 | – | sDSSmod [2]: 6.181; sDSSmod [3]: 7.783; sDSSmod [6]: 5.733 |
| COc1cc2nccc(Oc3ccc(NC(=O)C4(C(=O)Nc5ccc(F)cc5)CC4)cc3)c2cc1OC [Cabozantinib] | – | 0 | 19.55 | – |
| CCCCCCNC(=O)n1cc(F)c(=O)[nH]c1=O [Carmofur] | 710 | 4.76 | 12.42 | – |
| Nc1nc(Cl)nc2c1ncn2[C@H]1C[C@H](O)[C@@H](CO)O1 [Cladribine] | – | 0.13 | – | sDSSmod [2]: 7.959; sDSSmod [3]: 5.947 |
| CC(C)c1nc(CN(C)C(=O)N[C@@H](CCN2CCOCC2)C(=O)N[C@H](CC[C@H](Cc2ccccc2)NC(=O)OCc2cncs2)Cc2ccccc2)cs1 [Cobicistat] | – | 0 | – | sDSSmod [6]: 7.685 |
| C[C@@H](Oc1cc(-c2cnn(C3CCNCC3)c2)cnc1N)c1c(Cl)ccc(F)c1Cl [Crizotinib] | 8030 | – | 22.74 | – |
| Nc1ccn([C@@H]2O[C@H](CO)[C@@H](O)[C@@H]2O)c(=O)n1 [Cytarabine] | > 10000 | 1.34 | 6.525 | – |
| C[C@H](NC(=O)Cc1cc(F)cc(F)c1)C(=O)N[C@H](C(=O)OC(C)(C)C)c1ccccc1 [DAPT] | – | 0 | – | sDSSmod [6]: 13.54 |
| C#Cc1cccc(Nc2ncnc3cc(OCCOC)c(OCCO)cc23)c1.Cl [Desmethyl Erlotinib] | – | 3.34 | 8.648 | sDSSmod [6]: 11.77 |
| O=c1oc2c(O)c(O)cc3c(=O)oc4c(O)c(O)cc1c4c23 [Ellagic acid] | – | 0 | 7.542 | – |
| COc1cccc2c1C(=O)c1c(O)c3c(c(O)c1C2=O)C[C@@](O)(C(=O)CO)C[C@@H]3O[C@H]1C[C@H](N)[C@@H](O)[C@H](C)O1 [Epirubicin Hydrochloride] | 1200 | 18.98 | 6.778 | sDSSmod [4]: -11.4055; sDSSmod [6]: -9.535 |
| COc1cc([C@@H]2c3cc4c(cc3[C@@H](O[C@@H]3O[C@@H]5CO[C@@H](C)O[C@H]5[C@H](O)[C@H]3O)[C@H]3COC(=O)[C@H]23)OCO4)cc(OC)c1O [Etoposide] | > 10000 | 4.68 | 6.55 | sDSSmod [2]: 5.049 |
| CO[C@H]1C[C@@H]2CC[C@@H](C)[C@@](O)(O2)C(=O)C(=O)N2CCCC[C@H]2C(=O)O[C@H]([C@H](C)C[C@@H]2CC[C@@H](OCCO)[C@H](OC)C2)CC(=O)[C@H](C)/C=C(\C)[C@@H](O)[C@@H](OC)C(=O)[C@H](C)C[C@H](C)/C=C/C=C/C=C/1C [Everolimus] | 9000 | 7.57 | -5.493 | sDSSmod [3]: -5.697; sDSSmod [6]: -5.054 |
| O=c1[nH]c(=O)n([C@H]2C[C@H](O)[C@@H](CO)O2)cc1F [Floxuridine] | 830 | 4.9 | 13.67 | sDSSmod [2]: 40.61; sDSSmod [3]: 35.54 |
| CNC(=O)CN(CCN(CCN(CC(=O)[O-])CC(=O)NC)CC(=O)[O-])CC(=O)[O-].[Gd+3] [Gadodiamide] | – | 0 | 29.62 | – |
| Nc1ccn([C@@H]2O[C@H](CO)[C@@H](O)C2(F)F)c(=O)n1 [Gemzar] | – | 16.2 | 11.79 | EC50 [1]: 770 nM; sDSSmod [2]: 17.37; sDSSmod [3]: 10.03; sDSSmod [4]: -11.949 |
| O=c1c(-c2ccc(O)cc2)coc2cc(O)cc(O)c12 [Genistein] | > 10000 | 0.04 | 5.079 | sDSSmod [6]: 5.117 |
| C=CC(=O)N1CCC[C@@H](n2nc(-c3ccc(Oc4ccccc4)cc3)c3c(N)ncnc32)C1 [Ibrutinib] | – | 0 | – | sDSSmod [4]: 31.18; sDSSmod [6]: 39.31 |

| Molecule | EC50 ([1]; Homo sapiens) [nM] | DSS [1] | sDSSmod [5] | further results |
| --- | --- | --- | --- | --- |
| CC(=O)[C@]1(O)Cc2c(O)c3c(c(O)c2[C@@H](O[C@H]2C[C@H](N)[C@H](O)[C@H](C)O2)C1)C(=O)c1ccccc1C3=O [Idarubicin HCl] | 710 | 26.1 | 15.06 | sDSSmod [2]: 6.506; sDSSmod [4]: -22.4296; sDSSmod [6]: -17.1644 |
| NS(=O)(=O)OC[C@@H]1C[C@@H](n2ccc3c(N[C@H]4CCc5ccccc54)ncnc32)C[C@@H]1O [MLN-4924] | > 10000 | 0.51 | – | sDSSmod [2]: 17.05; sDSSmod [3]: 10.87 |
| S=c1[nH]cnc2nc[nH]c12 [Mercaptopurine] | > 10000 | 0.05 | – | sDSSmod [2]: 10.48; sDSSmod [3]: 10.9 |
| O=S(=O)(O)CCS [Mesna] | – | 0 | – | sDSSmod [6]: 8.021 |
| Nc1nc2[nH]cc(CCc3ccc(C(=O)N[C@@H](CCC(=O)O)C(=O)O)cc3)c2c(=O)[nH]1 [Pemetrexed] | 60 | 16.15 | 25.32 | sDSSmod [2]: 14.62; sDSSmod [3]: 14.75; sDSSmod [4]: -15.3102 |
| COc1ccccc1OCC(O)CN1CCN(CC(=O)Nc2c(C)cccc2C)CC1 (stereo not shown) [Ranolazine] | – | 0 | 25.89 | – |
| Nc1nc2nc[nH]c2c(=S)[nH]1 [Thioguanine] | 3160 | 4.62 | 42.58 | sDSSmod [2]: 9.961; sDSSmod [3]: 8.364; sDSSmod [6]: 6.838 |
| CCCCNC(=O)NS(=O)(=O)c1ccc(C)cc1 [Tolbutamide] | 60 | 0 | – | – |
| Cc1cccc(N(C)C(=S)Oc2ccc3ccccc3c2)c1 [Tolnaftate] | – | 0 | – | – |
| CN(C)CCOc1ccc(/C(=C(/CCCl)c2ccccc2)c2ccccc2)cc1 [Toremifene Citrate] | – | 0 | 23.6335 | – |
| CC1=C(/C=C/C(C)=C/C=C/C(C)=C/C(=O)O)C(C)(C)CCC1 [Tretinoin] | – | 0 | – | – |
| CC1(C)O[C@@H]2C[C@H]3[C@@H]4CCC5=CC(=O)C=C[C@]5(C)[C@@]4(F)[C@@H](O)C[C@]3(C)[C@]2(C(=O)CO)O1 [Triamcinolone Acetonide] | – | 0 | – | – |
| CC(C)C[C@H](NC(=O)[C@@H](O)[C@H](N)Cc1ccccc1)C(=O)O [Ubenimex] | – | 0 | – | – |
| CCCC(CCC)C(=O)O [Valproic acid sodium salt] | 2000 | 0 | – | – |
| COc1cc2c(Nc3ccc(Br)cc3F)ncnc2cc1OCC1CCN(C)CC1 [Vandetanib] | 4460 | 0.13 | 8.255 | sDSSmod [4]: 7.027; sDSSmod [6]: 7.721 |
| CCCS(=O)(=O)Nc1ccc(F)c(C(=O)c2c[nH]c3ncc(-c4ccc(Cl)cc4)cc23)c1F [Vemurafenib] | 50 | 0 | – | – |
| CC[C@]1(O)C[C@@H]2CN(CCc3c([nH]c4ccccc34)[C@@](C(=O)OC)(c3cc4c(cc3OC)N(C)[C@H]3[C@@](O)(C(=O)OC)[C@H](OC(C)=O)[C@]5(CC)C=CCN6CC[C@]43[C@@H]65)C2)C1 [Vinblastine] | > 10000 | 1.63 | – | – |
| CCOC(=O)C1=C[C@]2(CC)CCCN3CCc4c(n1c1ccccc41)[C@@H]32 [Vinpocetine] | – | 0 | – | – |
| CS(=O)(=O)c1ccc(C(=O)Nc2ccc(Cl)c(-c3ccccn3)c2)c(Cl)c1 [Vismodegib] | – | 0 | – | – |
| CC(c1cc2ccccc2s1)N(O)C(N)=O (stereo not shown) [Zileuton] | – | 0 | – | – |
| Bacitracin zinc | – | 0 | 17.07 | – |
| Maraviroc | – | 0 | – | treatment response in words [1]: low or no activity |

— article PMC6136712, “Ex vivo drug sensitivity testing as a means for drug repurposing in esophageal adenocarcinoma” (PLoS ONE, 2018)
